In the supplement of paper PMC10307832 one finds relative viability data, which are given here for one cell line.

Experiment in all cases: relative viability (nuclei count vs DMSO), 5 days (fraction); higher = more cells survive
Compound in experiment [1]: CC(=O)Nc1cccc(-n2c(=O)n(C3CC3)c(=O)c3c(Nc4ccc(I)cc4F)n(C)c(=O)c(C)c32)c1 [Trametinib] + Nc1nc2[nH]cc(CCc3ccc(C(=O)N[C@@H](CCC(=O)O)C(=O)O)cc3)c2c(=O)[nH]1 [Pemetrexed] (partner 0.2 µM)
The method in brief:
(§1)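 Medians of duplicate plates are given as relative viability. That measure is the nuclei count in treated wells divided by the count in vehicle wells. Counts were taken on 4× images of lung cancer cell lines in 1536-well plates, 5 days after pin-tool dosing the day after seeding with one drug alone or a fixed anchor-drug dose plus five library-drug doses (not always all listed) in √10 steps.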

Compound in experiment [2]: CN1C=C(C2=CC=CC=C21)/C=C\3/C4=C(C=CC=N4)NC3=O + CC(=O)Nc1cccc(-n2c(=O)n(C3CC3)c(=O)c3c(Nc4ccc(I)cc4F)n(C)c(=O)c(C)c32)c1 [Trametinib] (partner 0.02 µM)
The gist of the method: as §1

Compound in experiment [3]: CN1C=C(C2=CC=CC=C21)/C=C\3/C4=C(C=CC=N4)NC3=O + CC(=O)c1c(C)c2cnc(Nc3ccc(N4CCNCC4)cn3)nc2n(C2CCCC2)c1=O [Palbociclib] (partner 0.5 µM)
The gist of the method:
as §1

Compound in experiment [4]: CN1C=C(C2=CC=CC=C21)/C=C\3/C4=C(C=CC=N4)NC3=O + C[C@]1(O)C[C@@H](c2nc(-c3ccc4ccc(-c5ccccc5)nc4c3)c3c(N)nccn32)C1 [Linsitinib] (partner 1 µM)
The gist of the method:
as §1

For the cell line UMC-11, the relative viability was 0.804 in experiment [1] (first compound 0.0025 µM); 0.741 in experiment [1] (first compound 0.007906 µM); 0.719 in experiment [1] (first compound 0.07906 µM); 0.701 in experiment [1] (first compound 0.25 µM); 0.638 in experiment [2] (first compound 0.02 µM); 0.549 in experiment [2] (first compound 0.06325 µM). In addition, the relative viability in experiment [2] (first compound 0.2 µM) is 0.552; in experiment [2] (first compound 0.6325 µM), 0.671; in experiment [2] (first compound 2 µM), 0.78; in experiment [3] (first compound 0.02 µM) it was 0.3; in experiment [3] (first compound 0.06325 µM), 0.318; in experiment [3] (first compound 0.2 µM) it was 0.358. Also, the relative viability was 0.344 in experiment [3] (first compound 0.6325 µM); 0.332 in experiment [3] (first compound 2 µM); 0.68 in experiment [4] (first compound 0.02 µM); 1 in experiment [4] (first compound 0.06325 µM); 1.07 in experiment [4] (first compound 0.2 µM); 1.1 in experiment [4] (first compound 0.6325 µM). Also, in experiment [4] (first compound 2 µM), the relative viability turned out to be 1.18.
